EP0341300B1, “STIMULATION OF STEM CELL GROWTH BY THE BRYOSTATINS” (priority 1987, dated 1989)
“Also recorded” adds a separate entry of the source.

Key:
[1] = system: light-density, adherence-depleted normal human bone marrow cells; test: Granulocyte-macrophage colony formation (CFU-GM) in agar culture; format: cell-based
Description: For determining effective concentrations of bryostatins for granulocyte and macrophage colony formation, light density, adherence-depleted human bone marrow cells can be obtained. The cells can be suspended in a suitable medium, such as supplemented McCoy's 5A medium containing 0.3% agar and plated in 35 mm petri dishes as described in Pike et al, Journal of Cell Physiology, Vol. 76, pp. 77-83, 1970. For the bryostatins which have been tested and found to be effective, i.e., 1, 3, 8 and 9, maximum stimulatory concentrations are between about 10⁻⁷M and 10⁻¹⁰M.
Granulocyte-macrophage colony-forming unit (CFU-GM) colonies were enumerated from light-density, adherence-depleted normal human bone marrow cells. Cells were suspended in supplemented McCoy's 5A medium containing 0.3% agar and plated in 35-mm Petri dishes as described in Pike et al, J. Cell Physiol., Vol. 76, pp. 77-83, 1970. Colonies were enumerated following incubation of bone marrow with cells with rHGM-CSF at 50 ng/ml (Genetics Institute) or bryostatin 1 (●) bryostatin 3(o), bryostatin 8(♢), bryostatin 9(+), or bryostatin 13 (▲) at the concentrations indicated. After 14 days of culture at 37°C in a humidified atmosphere containing 7.5% CO₂, colonies of greater or equal to 50 cells were scored. Representative results from one of several experiments are reported as the mean colony number from quadruplicate samples. SEM is within 10% of the mean number.

[2] = system: P388 lymphocytic leukemia line; settings: reported by others (Pettit et al); test system not named; cited from earlier work
[3] = system: Normal human peripheral blood neutrophils; test: Neutrophil chemiluminescence with luminol; format: cell-based; settings: 15 min incubation, then 10 uM luminol; rhGM-CSF at 50 ng/ml
Description: To determine the effective amount of bryostatin for neutrophil activation, normal human peripheral blood neutrophil cells can be purified on a density gradient such as a Ficoll gradient. Other immune regulatory cells, such as T-lymphocytes and macrophages can be isolated by standard and known techniques. The neutrophils can be suspended in Dulbecco's phosphate-buffered saline supplemented with calcium and magnesium. One way to monitor neutrophil activation is to observe chemiluminescence. The neutrophils can be incubated for about fifteen minutes with the bryostatin. Then luminol (5-amino-2-3-dihydro-1, 4-phthalazinedione) can be added to a concentration of about 10 uM. Chemiluminescence can be measured in a luminometer as described in Allen et al, Biochemistry and Biophysics Research Communications, Vol. 69, pp. […], 1976.
Normal human peripheral blood neutrophils were highly purified on a double Ficoll density gradient and suspended in Dulbecco's phosphate-buffered saline supplemented with Ca²⁺ and Mg²⁺. First, substances to be tested were incubated with the neutrophils for 15 min. At this point 10 uM luminol (5-amino-2, 3-dihydro-1, 4-phtyalazinedione) was added to each sample. The generation of chemiluminescence was measured in a luminometer at 1.25 min intervals for up to 20 min.

normal human bone marrow = test: Clone transfer assay (growth of transferred clones in secondary plates); format: cell-based; settings: primary culture 10 nM bryostatin 1 for 4 days; secondary plates bryostatin 1 10 nM or rhGM-CSF 50 ng/ml, 10 further days
Description: Assays were performed essentially as described in Metcalf et al, Blood, Vol. 67, pp. 37-45, 1986. Briefly, cultures of normal human bone marrow were initiated in medium containing 10 nM bryostatin 1. Following 4 days of growth, clones of 4-8 cells were carefully removed using a glass pipette to avoid contamination by surrounding cells and transferred to secondary plates containing either rhGM-CSF (50 ng/ml) or bryostatin 1 (10 nM) as the source of CSF). After an additional 10 days of culture, the number of clones that had proliferated to form a colony of 40 cells or more was determined. Further growth was not observed in colonies transferred to plates containing no added CSF. (See Figure 3.)
Each symbol (●) represents a colony. Its height in each column is proportional to the number of cells in that colony. The data directly above sections G of the column represent colonies composed entirely of granulocytic cells. The data above sections GM in the column represent colonies composed of both granulocytic and monocytic cells. No colonies in secondary plates were detected that were composed of macrophage-monocyte cells only. The numerator in the fraction at the top of each column represents the number of colonies that developed in the secondary plate, and the denominator represents the total number of clones transferred.

[4] = system: early BFU-E and late CFU-E human erythroid progenitors; test: Erythroid progenitor assay, plasma-clot method with erythropoietin; format: cell-based; settings: plasma clots, optimal erythropoietin
Description: Amounts of bryostatin which are effective for stimulating hematopoiesis or neutrophil and other immune regulatory cell activation, can be determined using any of the assays known in the art. For example, early and late erythrocyte progenitors can be enumerated using the plasma clot method described in McLeod et al, Blood, Vol. 44, p. 517, 1974. Stimulation of such erythrocyte progenitors requires the presence of erythropoietin.
Assays for both early (BFU-E) and late (CFU-E) progenitors were enumerated as described in McLeod et al, Blood, Vol. 44, p. 517 (1974) using the plasma-clot method and optimal concentrations of erythropoietin. Bryostatin 1 stimulated both early BFU-E and late CFU-E human erythroid progenitors growth in plasma clots. The maximal stimulatory concentration was between 1 and 10 pM, with an inhibitory effect noted at concentrations above 1 nM.

K562 target cells = test: Activated neutrophil cytotoxicity, 51Cr release; format: cell-based, human; settings: for % specific lysis, 7.5 / % specific lysis, column 15 / % specific lysis, column 30: Bryostatin alone (no neutrophils)
Description: Alternatively, neutrophil activation can be assayed using a cytoxicity assay. Purified neutrophils can be incubated at a density of about 3x10⁶ cells per ml with various concentrations of bryostatin. The cells can be washed and added to radiolabelled target cells. K562 tumor cells and ⁵¹ Cr-label can be used to measure cytoxicity. The target cells are preincubated with the radiolabelled substance to effect uptake of the radiolabel. The target cells can be mixed with the neutrophils at various effector to target cell ratios, such as between about 50:1 and 5:1, Release of label from the target cells can be measured either by assaying the supernatant or the cells after centrifugation. Of course, other methods known in the art, such as using other assays of immune regulatory cell cytotoxicity can be used. Bryostatin 1 has activity toward neutrophils at about 10⁻¹⁰ to 10⁻⁷M, with a maximum activation effect on neutrophil cytotoxicity of K562 target cells at a concentration of about 10⁻⁷M.
Furthermore, activation of neutrophil cytotoxicity, as measured by killing of ⁵¹Cr-labeled K562 tumor target cells was also sitmulated by bryostatin 1 (Table 1). Neutrophils were purified as described above. Neutrophils were incubated at a density of 3 x 10⁶ cells per ml first with various concentrations of bryostatin 1 (0.1 uM to 0.1 nM), rhGM-CSF (50 ng/ml), or in medium alone for 2 hr. Following two washes, the cells were added to the ⁵¹Cr-labeled K562 target cells at effector/target cell ratios of 30:1, 15:1, or 7.5:1 as indicated. Control plates containing ⁵¹Cr-labeled K562 cells and either bryostatin or medium alone were evaluated to determine the spontaneous release of isotope. The plates containing the cells were centrifuged at 250 x g for 2 min and then incubated for 3 hrs at 37°C. One hundred microliters of the supernatant was harvested from each well, and the amount of radioactivity present was determined in a gamma scintillation counter. The maximum release of ⁵¹Cr was determined by assaying supernatant obtained from wells in which the cells were completely lysed with 6 M HCl.
Assessment of neutrophil cytotoxicity induced by bryostatin 1. K562 cells were labeled with […] and adjusted to a concentration of 10³ cells per ml in RPMI 1640 medium. Activated neutrophil cytotoxicity was determined. The results are expressed as the percentage of specific isotope released at the indicated effector/target cell ratio calculated as follows: % specific lysis = [(mean cpm of sample - mean cpm spontaneously released)/(mean cpm maximal -mean cpm spontaneously released)] x 100 [formula] . [formula] Maximum induced cpm released as 7364 ± 149. The maximum mean % specific lysis from triplicate determinations from a representative experiment is shown.

[5] = system: multi-potential hematopoietic progenitors; test: Continuous 7-day subcutaneous infusion by osmotic micropump in mice; format: in vivo, BDF₁ mice
Description: A dose-response stimulatory effect on multi-potential hematopoietic progenitors was noted. The administration of 144 ug/kg/d (max. dose) increased CFU-S, CFU-GM and BFU-E compared to control animals infused with vehicle alone. CFU-S from spleen cells of treated animals were increased 2-fold (19 vs. 39 colonies per 10⁶ cells injected), while bone marrow CFU-S was not altered. Likewise, CFU-GM colonies from spleen cells were increased 3.6-fold (52 vs. 188 per 10⁶ cells injected), and increased 2-fold (73 vs. 150 per 10⁵ nuc. cells) in bone marrow.

[6] = neutrophils plus 10^-7M, 0.1 µM
[7] = neutrophils plus 10^-8M, 0.01 µM
[8] = neutrophils plus 10^-9M, 0.001 µM
[9] = neutrophils plus 10^-10M, 0.0001 µM

CCC/C=C/C=C/C(=O)O[C@H]1[C@H]2C=C3C[C@H]([C@@H](C)O)OC(=O)C[C@H](O)C[C@@H]4C[C@H](OC(C)=O)C(C)(C)[C@](O)(C[C@@H]5C/C(=C\C(=O)OC)C[C@H](/C=C/C(C)(C)[C@]1(OC(=O)C2)O3)O5)O4 [Bryostatin 3, bryostatin 3]
granulocyte-macrophage colony stimulating activity (in words) ([1]; 14 days of culture): clearly less potent than bryostatin 1 or 8

CCCC(=O)O[C@H]1/C(=C/C(=O)OC)C[C@H]2C[C@H]([C@@H](C)O)OC(=O)C[C@H](O)C[C@@H]3C[C@H](OC(C)=O)C(C)(C)[C@](O)(C[C@@H]4C/C(=C/C(=O)OC)C[C@H](/C=C/C(C)(C)[C@]1(O)O2)O4)O3 [Bryostatin 9, bryostatin 9]
granulocyte-macrophage colony stimulating activity (in words) ([1]; 14 days of culture): much less potent stimulator; also recorded: weaker stimulator; also recorded: only a weak stimulator

CCCC(=O)O[C@H]1C[C@H]2C[C@@H](O)CC(=O)O[C@@H]([C@H](C)O)C[C@@H]3C/C(=C\C(=O)OC)C[C@@](O)(O3)C(C)(C)/C=C/[C@H]3C/C(=C\C(=O)OC)C[C@@H](C[C@](O)(O2)C1(C)C)O3 [Bryostatin 13, bryostatin 13]
granulocyte-macrophage colony stimulating activity (in words) ([1]; 14 days of culture): totally inactive; also recorded: completely inactive | antineoplastic activity [2]: retain potent antineoplastic activity | activation of neutrophil chemiluminescence [3]: not

bryostatin 1
colony morphology ([1]; 7 and 14 days of culture): primarily mixed granulocyte-macrophage and pure granulocyte colonies | lowest concentration at which colony stimulating activity was observed ([1]; 14 days of culture): 10 pM | maximal effective concentration for stimulation of CFU-GM ([1]; 14 days of culture, colonies of >= 50 cells scored): 1 to 10 nM | growth of transferred clones on secondary plates (normal human bone marrow): produced full-size colonies | concentrations with an inhibitory effect on erythroid progenitors [4]: above 1 nM | activation of neutrophil chemiluminescence [3]: potent activator | concentration of maximum activation effect on neutrophil cytotoxicity of K562 target cells (K562 target cells): about 10⁻⁷ M | % specific lysis, 7.5 (K562 target cells; 10^-7M, 0.1 µM): -0.6% | % specific lysis, column 15 (K562 target cells; 10^-7M, 0.1 µM): 0.3% | % specific lysis, column 30 (K562 target cells; 10^-7M, 0.1 µM): 1.5% | % specific lysis, 7.5 (K562 target cells; 10^-8M, 0.01 µM): 0.3% | % specific lysis, column 15 (K562 target cells; 10^-8M, 0.01 µM): 1.0% | % specific lysis, column 30 (K562 target cells; 10^-8M, 0.01 µM): 0.9% | % specific lysis at effector/target ratio 7.5 (K562 target cells; [6]): 7.8% | % specific lysis at effector/target ratio 15 (K562 target cells; [6]): 18.1% | % specific lysis at effector/target ratio 7.5 (K562 target cells; [7]): 0% | % specific lysis at effector/target ratio 15 (K562 target cells; [7]): 2.4% | % specific lysis at effector/target ratio 30 (K562 target cells; [7]): 8.4% | % specific lysis at effector/target ratio 7.5 (K562 target cells; [8]): 0% | % specific lysis at effector/target ratio 15 (K562 target cells; [8]): 1.8% | % specific lysis at effector/target ratio 30 (K562 target cells; [8]): 0.9% | % specific lysis at effector/target ratio 7.5 (K562 target cells; [9]): 0.9% | % specific lysis at effector/target ratio 15 (K562 target cells; [9]): 1.0% | % specific lysis at effector/target ratio 30 (K562 target cells; [9]): -0.8% | CFU-GM colonies from spleen cells ([5]; 144 ug/kg/d, 7 days): 188 per 10⁶ cells injected | CFU-GM colonies in bone marrow ([5]; 144 ug/kg/d, 7 days): 150 per 10⁵ nuc. cells | CFU-S from spleen cells ([5]; 144 ug/kg/d, 7 days): 39 colonies per 10⁶ cells injected | Erythroid BFU-E colonies from spleen cells ([5]; 144 ug/kg/d, 7 days): 58 per 10⁶ cells | bone marrow BFU-E progenitors ([5]; 144 ug/kg/d, 7 days): no change | bone marrow CFU-S ([5]; 144 ug/kg/d, 7 days): not altered | increase of CFU-GM colonies from spleen cells vs. vehicle control ([5]; 144 ug/kg/d, 7 days): 3.6 fold | increase of CFU-GM colonies in bone marrow vs. vehicle control ([5]; 144 ug/kg/d, 7 days): 2 fold | increase of CFU-S from spleen cells vs. vehicle control ([5]; 144 ug/kg/d, 7 days): 2 fold | increase of erythroid BFU-E colonies from spleen cells vs. vehicle control ([5]; 144 ug/kg/d, 7 days): 2 fold | differential peripheral white blood cell, hemocrit, bone marrow cellularity or spleen weights ([5]; 7-day infusion): not accompanied by a significant change | major organ toxic effects ([5]; infused for 7 days, any of the doses employed): no major organ toxic effects

bryostatin 8
lowest concentration at which colony stimulating activity was observed ([1]; 14 days of culture): 10 pM
